Laboratory results as given in article PMC11434480, “Discovery and Optimization of Ergosterol Peroxide Derivatives as Novel Glutaminase 1 Inhibitors for the Treatment of Triple-Negative Breast Cancer” (Molecules, 2024).

What was measured:
Format in all cases: cell-based, human
[1] = test system: A549; test: MTT antiproliferative assay, A549; details: mean of three experiments ± SD
Procedure: (§1) The in vitro antiproliferative activity of the novel EP derivatives (1a–h, 2a–h, 3a–h, and 4a–h) was evaluated on four different human cancer cell lines (A549, HepG2, MCF-7, and MDA-MB-231) using an MTT assay.
(§2) Cells containing 10% fetal bovine serum (FBS; WISENT, Nanjing, China) were cultured in an L-15 culture medium (L-15, BOSTER, Wuhan, China) in an incubator at 37 °C. The cells were then inoculated into 96-well plates at a density of 5 × 10^3/well, cultured in 100 μL L-15 medium for 24 h, and incubated with the compound to be tested for 48 h. Next, 20 μL of MTT (5 mg/mL) solution was added and incubated at 37 °C for 4 h away from light. A resorption culture medium was then supplemented with 150 μL DMSO per well. The absorbance was measured at 570 nm using an enzymometer (SAFIRE2, Tecan, Swiss Confederation, Männedorf, Switzerland). The cytotoxic activity was presented in terms of half the inhibition rate.

[2] = test system: HepG2; test: MTT antiproliferative assay, HepG2; details: mean of three experiments ± SD
Procedure: as §1, §2

[3] = test system: MCF-7; test: MTT antiproliferative assay, MCF-7; details: mean of three experiments ± SD
Procedure: as §1, §2

[4] = test system: MDA-MB-231; test: MTT antiproliferative assay, MDA-MB-231; details: MTT, 48 h, mean of three experiments ± SD
Procedure: as §1, §2

Compound `O=C(Cc1ccccc1)Nc1nnc(CCSCCc2nnc(NC(=O)Cc3ccccc3)s2)s1` [BPTES, reference compound] has an IC50 ([1]; Homo sapiens, A549, 48 h) of 49.1 ± 11.6 µM, an IC50 ([2]; Homo sapiens, HepG2, 48 h) of 60.2 ± 8.35 µM and an IC50 ([3]; Homo sapiens, MCF7, 48 h) of 21.3 ± 6.89 µM. The IC50 ([4]; Homo sapiens, MDA-MB-231) was 9.1 ± 0.26 µM.

Work on `N.N.[Cl][Pt][Cl]` [Cisplatin, reference compound] yielded an IC50 ([1]; 48 h) of 11.6 ± 0.38 µM, an IC50 ([2]; 48 h) of 6.29 ± 0.3 µM and an IC50 ([3]; 48 h) of 4.23 ± 0.24 µM. For the same compound, the IC50 [4] was 10.4 ± 0.34 µM.

`CC(C)C(C)C=CC(C)C1CCC2C1(C)CCC1C23C=CC2(CC(OC(=O)CCCC(=O)Nc4nncs4)CCC12C)OO3` (stereo not drawn) [Compound 3a, Ergosterol peroxide-3-(5-((1,3,4-thiadiazol-2-yl)amino)-5-oxopentanoate)] gave an IC50 ([1]; Homo sapiens, A549, 48 h) of 9.73 ± 0.42 µM, an IC50 ([2]; Homo sapiens, HepG2, 48 h) of 10.7 ± 0.82 µM and an IC50 ([3]; Homo sapiens, MCF7, 48 h) of 5.16 ± 0.93 µM. For the same compound, the IC50 ([4]; Homo sapiens, MDA-MB-231) was 7.06 ± 0.35 µM.

In the case of `CC(C)C(C)C=CC(C)C1CCC2C1(C)CCC1C23C=CC2(CC(OC(=O)CCCC(=O)Nc4nccs4)CCC12C)OO3` (stereo not drawn) [Compound 3b, Ergosterol peroxide-3-(5-oxo-5-(thiazol-2-ylamino)pentanoate)], the IC50 ([1]; Homo sapiens, A549, 48 h) is reported as 11.7 ± 0.82 µM, the IC50 ([2]; Homo sapiens, HepG2, 48 h) is reported as 13.1 ± 1.22 µM and the IC50 ([3]; Homo sapiens, MCF7, 48 h) is reported as 9.47 ± 0.75 µM. For the same compound, the IC50 ([4]; Homo sapiens, MDA-MB-231) was 6.92 ± 0.28 µM.

`CC(C)C(C)C=CC(C)C1CCC2C1(C)CCC1C23C=CC2(CC(OC(=O)CCCC(=O)Nc4nc5cc(F)ccc5s4)CCC12C)OO3` (stereo not drawn) [Compound 3c, Ergosterol peroxide-3-(5-((5-fluorobenzo[d]thiazol-2-yl)amino)-5-oxopentanoate)] gave an IC50 ([1]; Homo sapiens, A549, 48 h) of 11.4 ± 0.79 µM, an IC50 ([2]; Homo sapiens, HepG2, 48 h) of 11.9 ± 1.07 µM and an IC50 ([3]; Homo sapiens, MCF7, 48 h) of 11 ± 0.62 µM. For the same compound, the IC50 ([4]; Homo sapiens, MDA-MB-231) was 12 ± 0.72 µM.

`CC(C)C(C)C=CC(C)C1CCC2C1(C)CCC1C23C=CC2(CC(OC(=O)CCCC(=O)Nc4nc5ccc(F)cc5s4)CCC12C)OO3` (stereo not drawn) [Compound 3d, Ergosterol peroxide-3-(5-((6-fluorobenzo[d]thiazol-2-yl)amino)-5-oxopentanoate)] was tested, and the IC50 ([1]; Homo sapiens, A549, 48 h) was 9.09 ± 0.64 µM, the IC50 ([2]; Homo sapiens, HepG2, 48 h) was 14.7 ± 0.35 µM and the IC50 ([3]; Homo sapiens, MCF7, 48 h) was 8.39 ± 0.34 µM. For the same compound, the IC50 ([4]; Homo sapiens, MDA-MB-231) was 10.8 ± 0.53 µM.

`CC(C)C(C)C=CC(C)C1CCC2C1(C)CCC1C23C=CC2(CC(OC(=O)CCCC(=O)Nc4ccccc4)CCC12C)OO3` (stereo not drawn) [Compound 3e, Ergosterol peroxide-3-(5-oxo-5-(phenylamino)pentanoate)] showed an IC50 ([1]; Homo sapiens, A549, 48 h) of 10.5 ± 0.79 µM, an IC50 ([2]; Homo sapiens, HepG2, 48 h) of 14.9 ± 1.13 µM and an IC50 ([3]; Homo sapiens, MCF7, 48 h) of 11.6 ± 0.66 µM. It also gave an IC50 ([4]; Homo sapiens, MDA-MB-231) of 4.78 ± 0.41 µM.

In the case of `CC(C)C(C)C=CC(C)C1CCC2C1(C)CCC1C23C=CC2(CC(OC(=O)CCCC(=O)Nc4ccc(F)cc4)CCC12C)OO3` (stereo not drawn) [Compound 3f, Ergosterol peroxide-3-(5-((4-fluorophenyl)amino)-5-oxopentanoate)], the IC50 ([1]; Homo sapiens, A549, 48 h) is reported as 11.1 ± 0.93 µM, the IC50 ([2]; Homo sapiens, HepG2, 48 h) is reported as 9.79 ± 1.01 µM and the IC50 ([3]; Homo sapiens, MCF7, 48 h) is reported as 8.09 ± 0.71 µM. The IC50 ([4]; Homo sapiens, MDA-MB-231) was 7.19 ± 0.39 µM.

With `CC(C)C(C)C=CC(C)C1CCC2C1(C)CCC1C23C=CC2(CC(OC(=O)CCCC(=O)Nc4ccc5ccccc5c4)CCC12C)OO3` (stereo not drawn) [Compound 3h, Ergosterol peroxide-3-(5-(naphthalen-2-ylamino)-5-oxopentanoate)] the IC50 ([1]; Homo sapiens, A549, 48 h) was 9.3 ± 0.66 µM, the IC50 ([2]; Homo sapiens, HepG2, 48 h) was 13.8 ± 1.3 µM and the IC50 ([3]; Homo sapiens, MCF7, 48 h) was 8.65 ± 0.73 µM. The IC50 ([4]; Homo sapiens, MDA-MB-231) was 4.98 ± 0.84 µM.

With `CC(C)C(C)C=CC(C)C1CCC2C1(C)CCC1C23C=CC2(CC(OC(=O)c4ccccc4C(=O)Nc4nncs4)CCC12C)OO3` (stereo not drawn) [Compound 4a, Ergosterol peroxide-3-(2-((1,3,4-thiadiazol-2-yl)carbamoyl)benzoate)] the IC50 ([1]; Homo sapiens, A549, 48 h) was 7.07 ± 0.47 µM, the IC50 ([2]; Homo sapiens, HepG2, 48 h) was 8.08 ± 0.64 µM and the IC50 ([3]; Homo sapiens, MCF7, 48 h) was 8.2 ± 0.68 µM. It also gave an IC50 ([4]; Homo sapiens, MDA-MB-231) of 10.2 ± 0.62 µM.

`CC(C)C(C)C=CC(C)C1CCC2C1(C)CCC1C23C=CC2(CC(OC(=O)c4ccccc4C(=O)Nc4nccs4)CCC12C)OO3` (stereo not drawn) [Compound 4b, Ergosterol peroxide-3-(2-oxo-5-((thiazol-2-yl)carbamoyl)benzoate)] gave an IC50 ([1]; Homo sapiens, A549, 48 h) of 12.8 ± 1.08 µM, an IC50 ([2]; Homo sapiens, HepG2, 48 h) of 11 ± 0.76 µM and an IC50 ([3]; Homo sapiens, MCF7, 48 h) of 12.6 ± 0.94 µM. For the same compound, the IC50 ([4]; Homo sapiens, MDA-MB-231) was 15.8 ± 1.26 µM.

`CC(C)C(C)C=CC(C)C1CCC2C1(C)CCC1C23C=CC2(CC(OC(=O)c4ccccc4C(=O)Nc4nc5cc(F)ccc5s4)CCC12C)OO3` (stereo not drawn) [Compound 4c, Ergosterol peroxide-3-(2-((5-fluorobenzo[d]thiazol-2-yl)carbamoyl)benzoate)] showed an IC50 ([1]; Homo sapiens, A549, 48 h) of 11.7 ± 1.02 µM, an IC50 ([2]; Homo sapiens, HepG2, 48 h) of 11.4 ± 0.98 µM and an IC50 ([3]; Homo sapiens, MCF7, 48 h) of 10.7 ± 0.47 µM. The IC50 ([4]; Homo sapiens, MDA-MB-231) was 7.32 ± 0.58 µM.
